Laboratory results as given in patent US20220332758A1, “PEPTIDE-BASED COMPOSITIONS AND METHODS FOR TREATING ALZHEIMER'S DISEASE” (Board of Regents, The Universityof Texas System, priority 2019, published 2022).
Entries after “also recorded” stand apart in the source; their conditions may differ.

Molecular target: T1, latent human 20S proteasome (Homo sapiens, UniProt P25787+P60900)
T1 construct: purified from erythrocytes; purchased Boston Biochem, Inc. or Enzo Life Sciences, Inc; host or cells: human erythrocytes
Assay: Chymotrypsin-like (ChT-L) activity of purified latent human 20S proteasome, Suc-LLVY-AMC substrate
Type: biochemical
Conditions: for activation of ChT-L activity of 20S proteasome (in words): in vitro, latent human 20S
Experimental: Determination of Proteasome Activity. Human housekeeping core (20S) proteasome purified from erythrocytes was purchased from Boston Biochem, Inc. (Cambridge, Mass.) or from Enzo Life Sciences, Inc. (Farmingdale, N.Y.). […] The stock proteasome was diluted to 0.2 mg/mL working solution in “dilution buffer” (50 mM Tris/HCl, pH 8, 20% glycerol). The following model peptide substrates, releasing fluorescent 7-amino-4-methylcoumarin (AMC) reporter group after cleavage, were used: succinyl-LeuLeuValTyr-AMC (SEQ ID NO: 14) (for the ChT-L peptidase; SucLLVY-AMC; Bachem Bioscience Inc., Philadelphia, Pa.), butoxycarbonyl-LeuArgArg-AMC (T-L; Bachem Bioscience Inc., Philadelphia, Pa.) and carbobenzoxy-LeuLeuGlu-AMC (PGPH; Enzo Life Sciences Inc., Farmingdale, N.Y.). The substrates were used at concentration of 50 μM (ChT-L) or 100 μM (T-L, PGPH). Free AMC (Sigma-Aldrich, St. Louis, Mo.) was used as the standard. […] The TAT peptides, Rpt peptides (except Rpt6) and the peptide substrates were dissolved in anhydrous dimethylsulfoxide (DMSO; Sigma-Aldrich, St. Louis, Mo.) and such stock solutions were stored at −20° C. The total concentration of DMSO in final reaction mixtures never exceeded 3% (vol/vol). The Trp (tryptophan)-containing Rpt6 peptide was dissolved in ultrapure water and stored at −20° C., protected from light. The reaction was carried out in 96-well plates, in 100 μL of reaction mixture that consisted of 45 mM Tris/HCl, pH 8, 100 mM KCl, 1 mM EDTA (reaction buffer) and a fluorogenic peptide substrate, to which 200 ng (nearly […]) of proteasome were added. […] The proteasome was preincubated with a substrate for 10 min at room temperature, then 1 μL of DMSO or a desired concentration of a TAT peptide in 1 μL of DMSO were added. After mixing, the plate was transferred to a Fluoroskan Ascent plate reader (Thermo Fisher Scientific Inc., Waltham, Mass.) for 1 h (37° C.), with fluorescence readouts once per minute. To test the competition with Rpt derived peptides, the Rpt peptide (1 μM) was added before the TAT peptide to the reaction mixture. The reaction rates were calculated from a linear segment of kinetic curves constructed from measurements in 1-min intervals. Reaction rates were calculated using a linear fit performed with the Slope Analyser and Enzyme Kinetics applications launched within Origin Pro 2019 (OriginLab Corporation, Northampton, Mass.). […] The data are presented as mean±SD from at least three independent experiments.
Statistical Analysis. Experiments were performed at least in three independent replicates. The results are presented as a mean±SD. A two-tailed t-test was applied to compare the means. The comparisons were allowing for unequal variances with a Welch correction. Abundance of proteasome conformers was compared with the chi squared test and two-sample proportion test. A significance level was set at 0.05. Statistical analysis was performed using statistical procedures offered by OriginPro 2019 (OriginLabs, Northampton, Mass.). Reaction rates were calculated from a smoothed linear segment of kinetic traces using OriginPro 2019. Response curves (activity vs. compound concentration) were fitted with a nonlinear fitting application of OriginPro 2019. The AC50 and maximum activation fold was calculated based on the equations implemented to fit the response curves.

activation of ChT-L activity of 20S proteasome (in words) (listed as Tat1-Den) | activation of ChT-L activity of 20S proteasome (in words) (listed as Tat-Den) | SMILES | AC50 (20S proteasome AC50, Table 1, ChT-L activity, Suc-LLVY-MCA, purified human housekeeping 20S) | AC50 (AC50 [nM] ± SE, Table 3, purified 20S proteasome in Tris/HCl buffer pH 8, ChT-L model substrate) | activation of ChT-L activity of 20S proteasome (in words)
 |  | N=C(N)NCCCC(NC(=O)CN)C(=O)NC(CCCCN)C(=O)NC(CCCCN)C(=O)NC(CCCNC(=N)N)C(=O)NC(CCCNC(=N)N)C(=O)NC(CCC(N)=O)C(=O)N1Cc2ccccc2C[C@H]1C(=O)N1C(C(=O)NC(CCCNC(N)N)C(=O)N2CCCC2C(=O)NC(CO)C(=O)O)CC2CCCCC21 (stereo partly drawn) [(5), GRKKRRQ-TOD-RPS] | 221 nM | 220 ± 89 nM | strongly enhance
one of the best proteasome activators | strongly enhance | NCCCCC(N)C(=O)NC(CCCCN)C(=O)NC(CCCCN)C(=O)Nc1cc(NC(=O)C(CCCCN)NC(=O)C(CCCCN)NC(=O)C(N)CCCCN)cc(C(=O)NC(CCCCN)C(=O)NC(CCCCN)C(=O)NC(CCCCN)C(=O)O)c1 (stereo not drawn) [(8)] |  |  | one of the highest activation folds for the 20S core and one of the lowest AC50; also recorded: highest fold of activation potential and a low AC50
